In US6737383B1, “Herbicidal oxadiazolidines” (priority 1999, dated 2004):

Assays:
[1] = system: corn; test: Test B pre/postemergence corn; type: in vivo, Zea mays; details: for Plant response rating, Corn: scale of 0 to 10 where 0 is no effect and 10 is complete control
How it was run: (§1)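 Herbicidal effect was estimated by eye on a ten-point control scale after plants spent twelve to sixteen days in a greenhouse following soil or foliar treatment. Foliar sprays targeted plants at one to four leaves; all doses were formulated in a non-phytotoxic solvent with surfactant.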

[2] = system: wheat; test: Test B pre/postemergence wheat; type: in vivo, Triticum aestivum; details: for Plant response rating, Wheat: scale of 0 to 10 where 0 is no effect and 10 is complete control
How it was run: as §1

[3] = system: purple nutsedge; test: Test B pre/postemergence purple nutsedge; type: in vivo, Cyperus rotundus; details: for Plant response rating, Nutsedge: scale of 0 to 10 where 0 is no effect and 10 is complete control
How it was run: as §1

[4] = system: surinam grass; test: Test B pre/postemergence surinam grass; type: in vivo, Brachiaria decumbens; details: for Plant response rating, B. signalgrass: scale of 0 to 10 where 0 is no effect and 10 is complete control
How it was run: as §1

[5] = system: crabgrass; test: Test B pre/postemergence crabgrass; type: in vivo, Digitaria sanguinalis; details: for Plant response rating, Crabgrass: scale of 0 to 10 where 0 is no effect and 10 is complete control
How it was run: as §1

[6] = system: giant foxtail; test: Test B pre/postemergence giant foxtail; type: in vivo, Setaria faberii; details: for Plant response rating, Giant foxtail: scale of 0 to 10 where 0 is no effect and 10 is complete control
How it was run: as §1

[7] = system: morningglory; test: Test B pre/postemergence morningglory; type: in vivo, Ipomoea hederacea; details: for Plant response rating, Morningglory: scale of 0 to 10 where 0 is no effect and 10 is complete control
How it was run: as §1

[8] = system: rape; test: Test B pre/postemergence rape; type: in vivo, Brassica napus; details: for Plant response rating, Rape: scale of 0 to 10 where 0 is no effect and 10 is complete control
How it was run: as §1

[9] = system: sugar beet; test: Test B pre/postemergence sugar beet; type: in vivo, Beta vulgaris; details: for Plant response rating, Sugarbeets: scale of 0 to 10 where 0 is no effect and 10 is complete control
How it was run: as §1

[10] = system: bedstraw; test: Test B pre/postemergence bedstraw; type: in vivo, Galium aparine; details: Postemergence, scale 0 to 10 (0 no effect, 10 complete control)
How it was run: as §1

[11] = system: bamyardgrass; test: Test B flood test barnyardgrass; type: in vivo, Echinochloa crus-galli
How it was run: (§2)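 Plants were grown to the 2-leaf stage before treatment with test chemical, then held in a greenhouse for twelve to sixteen days. Injury was visually rated against untreated controls on a 0–10 scale, where 0 is no effect and 10 is complete control.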

[12] = system: rice; test: Test B flood test rice; type: in vivo, Oryza sativa
How it was run: as §2

[13] = system: smallflower flatsedge; test: Test B flood test smallflower flatsedge; type: in vivo, Cyperus difformis
How it was run: as §2

[14] = system: wild oat; test: Test B pre/postemergence wild oat; type: in vivo, Avena fatua; details: for Plant response rating, Wild oats: scale of 0 to 10 where 0 is no effect and 10 is complete control
How it was run: as §1

[15] = system: blackgrass; test: Test B pre/postemergence blackgrass; type: in vivo, Alopecurus myosuroides; details: for Plant response rating, Blackgrass: scale of 0 to 10 where 0 is no effect and 10 is complete control
How it was run: as §1

[16] = system: pigweed; test: Test B pre/postemergence pigweed; type: in vivo, Amaranthus retroflexus; details: for Plant response rating, Redroot pigweed: scale of 0 to 10 where 0 is no effect and 10 is complete control
How it was run: as §1

[17] = Postemergence, Rate 31 g/ha, visual rating, scale 0 to 10 (0 no effect, 10 complete control)
[18] = Postemergence, Rate 250 g/ha, scale 0 to 10
[19] = Preemergence, Rate 31 g/ha, visual rating, scale 0 to 10 (0 no effect, 10 complete control)
[20] = Preemergence, Rate 250 g/ha, scale 0 to 10, 0 is no effect, 10 is complete control
[21] = Rate 62 g/ha, Postemergence, scale 0 to 10 (0 no effect, 10 complete control)
[22] = Rate 125 g/ha, Postemergence, scale 0 to 10, 0 is no effect, 10 is complete control
[23] = Rate 31 g/ha, Pre-emergence section (flood test species), scale 0 to 10
[24] = Rate 62 g/ha, flood test species, Pre-emergence, visual evaluation after twelve to sixteen days
[25] = Rate 125 g/ha, under heading Pre-emergence, flood test species, visual evaluation after twelve to sixteen days
[26] = Rate 250 g/ha, Pre-emergence (flood test species), scale 0 to 10, 0 is no effect, 10 is complete control

## Cc1nc(C)c(C(C)n2c(=O)on(C(=O)N(c3ccccc3)C(C)C)c2=O)s1 (stereo not shown) [Compound 442]
[1]; [17]
  Corn plant response rating: 0
[1]; [18]
  Corn plant response rating: 0
[1]; [19]
  Corn plant response rating: 0
[1]; Preemergence, Rate 62 g/ha
  Plant response rating, Corn: 0
[1]; Preemergence, Rate 125 g/ha
  Plant response rating, Corn: 0
[1]; [20]
  Corn plant response rating: 0
[1]; [21]
  Corn plant response rating: 0
[1]; [22]
  Corn plant response rating: 0
[2]; [17]
  Wheat plant response rating: 0
[2]; [18]
  Wheat plant response rating: 0
[2]; Preemergence, Rate 62 g/ha
  Plant response rating, Wheat: 0
[2]; Preemergence, Rate 125 g/ha
  Plant response rating, Wheat: 0
[2]; [20]
  Wheat plant response rating: 0
[2]; [21]
  Wheat plant response rating: 0
[2]; [22]
  Wheat plant response rating: 0
[3]; [17]
  Nutsedge plant response rating: 0
[3]; [18]
  Nutsedge plant response rating: 0
[3]; Preemergence, Rate 62 g/ha
  Plant response rating, Nutsedge: 0
[3]; Preemergence, Rate 125 g/ha
  Plant response rating, Nutsedge: 0
[3]; [20]
  Nutsedge plant response rating: 0
[3]; [21]
  Nutsedge plant response rating: 0
[3]; [22]
  Nutsedge plant response rating: 0
[4]; [17]
  B. signalgrass plant response rating: 0
[4]; Postemergence, Rate 250 g/ha, scale 0 to 10, 0 no effect, 10 complete control
  B. signalgrass plant response rating: 0
[4]; [19]
  B. signalgrass plant response rating: 0
[4]; Preemergence, Rate 62 g/ha
  Plant response rating, B. signalgrass: 0
[4]; Preemergence, Rate 125 g/ha
  Plant response rating, B. signalgrass: 0
[4]; [20]
  B. signalgrass plant response rating: 0
[4]; [21]
  B. signalgrass plant response rating: 0
[4]; [22]
  B. signalgrass plant response rating: 0
[5]; [17]
  Crabgrass plant response rating: 0
[5]; [18]
  Crabgrass plant response rating: 0
[5]; [19]
  Crabgrass plant response rating: 5
[5]; Preemergence, Rate 62 g/ha
  Plant response rating, Crabgrass: 7
[5]; Preemergence, Rate 125 g/ha
  Plant response rating, Crabgrass: 8
[5]; [20]
  Crabgrass plant response rating: 8
[5]; [21]
  Crabgrass plant response rating: 0
[5]; [22]
  Crabgrass plant response rating: 0
[6]; [17]
  Giant foxtail plant response rating: 0
[6]; [18]
  Giant foxtail plant response rating: 0
[6]; [19]
  Giant foxtail plant response rating: 0
[6]; Preemergence, Rate 62 g/ha
  Plant response rating, Giant foxtail: 0
[6]; Preemergence, Rate 125 g/ha
  Plant response rating, Giant foxtail: 0
[6]; [20]
  Giant foxtail plant response rating: 3
[6]; [21]
  Giant foxtail plant response rating: 0
[6]; [22]
  Giant foxtail plant response rating: 0
[7]; [17]
  Morningglory plant response rating: 1
[7]; [18]
  Morningglory plant response rating: 7
[7]; Preemergence, Rate 62 g/ha
  Plant response rating, Morningglory: 0
[7]; Preemergence, Rate 125 g/ha
  Plant response rating, Morningglory: 0
[7]; [20]
  Morningglory plant response rating: 0
[7]; [21]
  Morningglory plant response rating: 4
[7]; [22]
  Morningglory plant response rating: 4
[8]; [17]
  Rape plant response rating: 0
[8]; [18]
  Rape plant response rating: 0
[8]; Preemergence, Rate 62 g/ha
  Plant response rating, Rape: 0
[8]; Preemergence, Rate 125 g/ha
  Plant response rating, Rape: 0
[8]; [20]
  Rape plant response rating: 0
[8]; [21]
  Rape plant response rating: 0
[8]; [22]
  Rape plant response rating: 0
[9]; [17]
  Sugarbeets plant response rating: 0
[9]; [18]
  Sugarbeets plant response rating: 0
[9]; Preemergence, Rate 62 g/ha
  Plant response rating, Sugarbeets: 0
[9]; Preemergence, Rate 125 g/ha
  Plant response rating, Sugarbeets: 0
[9]; [20]
  Sugarbeets plant response rating: 0
[9]; [21]
  Sugarbeets plant response rating: 0
[9]; [22]
  Sugarbeets plant response rating: 0
[10]; Rate 31 g/ha, visual rating
  Bedstraw plant response rating: 0
[10]; Rate 62 g/ha
  Bedstraw plant response rating: 0
[11]; [23]
  Barnyardgrass plant response rating: 0
[11]; [24]
  Plant response rating, Barnyardgrass (0 to 10 scale, 0 is no effect, 10 is complete control): 0
[11]; [25]
  Barnyardgrass plant response rating (0 to 10 scale, 0 is no effect, 10 is complete control): 0
[11]; [26]
  Barnyardgrass plant response rating: 0
[12]; [23]
  Rice plant response rating: 0
[12]; [24]
  Plant response rating, Rice (0 to 10 scale, 0 is no effect, 10 is complete control): 0
[12]; [25]
  Rice plant response rating (0 to 10 scale, 0 is no effect, 10 is complete control): 0
[12]; [26]
  Rice plant response rating: 0
[13]; [23]
  S. Flatsedge plant response rating: 0
[13]; [24]
  Plant response rating, S. Flatsedge (0 to 10 scale, 0 is no effect, 10 is complete control): 0
[13]; [25]
  S. Flatsedge plant response rating (0 to 10 scale, 0 is no effect, 10 is complete control): 0
[13]; [26]
  S. Flatsedge plant response rating: 0
[14]; [17]
  Wild oats plant response rating: 0
[14]; [18]
  Wild oats plant response rating: 0
[14]; Preemergence, Rate 62 g/ha
  Plant response rating, Wild oats: 0
[14]; Preemergence, Rate 125 g/ha
  Plant response rating, Wild oats: 0
[14]; [20]
  Wild oats plant response rating: 0
[14]; [21]
  Wild oats plant response rating: 0
[14]; [22]
  Wild oats plant response rating: 0
[15]; [17]
  Blackgrass plant response rating: 0
[15]; [18]
  Blackgrass plant response rating: 0
[15]; [19]
  Blackgrass plant response rating: 0
[15]; Preemergence, Rate 62 g/ha
  Plant response rating, Blackgrass: 0
[15]; Preemergence, Rate 125 g/ha
  Plant response rating, Blackgrass: 0
[15]; [20]
  Blackgrass plant response rating: 0
[15]; [21]
  Blackgrass plant response rating: 0
[15]; [22]
  Blackgrass plant response rating: 0
[16]; [17]
  Redroot pigweed plant response rating: 0
[16]; [18]
  Redroot pigweed plant response rating: 0
[16]; Preemergence, Rate 62 g/ha
  Plant response rating, Redroot pigweed: 0
[16]; Preemergence, Rate 125 g/ha
  Plant response rating, Redroot pigweed: 0
[16]; [20]
  Redroot pigweed plant response rating: 0
[16]; [21]
  Redroot pigweed plant response rating: 0
[16]; [22]
  Redroot pigweed plant response rating: 0
